Reference: patent US9764029B2, “Tumor proliferation inhibitor containing ultrasound-sensitive substance and method for inhibiting tumor proliferation by using tumor proliferation inhibitor and low-intensity pulsed ultrasound waves” (Fukuoka University, priority 2010, dated 2017)

Columns and labels:
[1] = test system: human gastric cancer cell line MKN-74; assay: Ultrasonic treatment of SCID mice carrying subcutaneous MKN-74 cancer (Example 1); assay type: in vivo; details: DEG 5 μM + SONAZOID 16 μL in 300 μL saline, intratumoral; single treatment with low-intensity pulsed ultrasound 2 W/cm^2, 1 MHz, 50% duty cycle, 10 minutes; three weeks after treatment
Procedure: SCID mice as cancer-carrying animals were inoculated subcutaneously with human gastric cancer cell line MKN-74 which was in turn grown to a diameter of the cancer size of approximately 20 mm and then subjected to treatment by ultrasound waves. The ultrasonic treatment was carried out using the porphyrin derivative, [7,12-bis(1-(2-(2-hydroxyethoxy)ethoxy)ethyl)-3,8,13,17-tetramethylporphyrin-2,18-dipropionato]manganese (DEG), as the ultrasound-sensitive substance and an ultrasound contrast agent containing lipid stabilized perfluorobutane microbubbles in an aqueous solution (SONAZOID™) as the acoustic cavitation phenomenon-enhancing substance by irradiating the mice with low-intensity pulsed ultrasound waves of 2 W/cm^2 and 1 MHz under a condition of 50% duty cycle for 10 minutes. The ultrasonic treatment was performed by suspending 5 μM of the ultrasound sensitive substance and 16 μL of the acoustic cavitation phenomenon-enhancing substance in 300 μL of saline and irradiating the mice with the ultrasound waves immediately after intratumoral administration of the resulting suspension. The states of development of the cancer were observed immediately after ultrasonic treatment, one week and three weeks thereafter.

[2] = test system: human gastric cancer cell line MKN-74; assay: Inhibitory effect on cancer at a specific site (subcutaneous tumor) of mice with MKN-74 tumor (Example 2); assay type: in vivo; details: DEG 5 μM in combination with Szd 16 μL in 200 μL PBS, intratumoral; ultrasound 1 W/cm^2, 1 MHz, 50% duty cycle, 10 minutes, three times on alternate days
Procedure: Mice were inoculated subcutaneously with ca. 5×10^6 cells of human gastric cancer cell line MKN-74 and a PBS suspension (200 μL) composed of the ultrasound-sensitive substance (DEG; 5 μM) and the acoustic cavitation phenomenon-enhancing substance (Szd; 16 μL) was administered intratumorally, followed by irradiating the mice with ultrasound waves of 1 W/cm^2 and 1 MHZ under a condition of 50% duty cycle for 10 minutes using Sonitron 100. The ultrasound waves were irradiated three times on alternate days. The results of the cancer sizes are shown by arrow mark (↑) in FIG. 4.

## 7,12-bis(1-(2-(2-hydroxyethoxy)ethoxy)ethyl)-3,8,13,17-tetra-methylporphyrin-2,18-dipropionato]manganese [DEG]
[1]
  state of development of the cancer (tumor size): dramatic regression of the cancer
[2]
  antitumor effect, one remaining case of three: significant antitumor effect
  antitumor effect, two cases out of three: remarkable effects
